Literature values as cited in patent US20070202162A1, “EXTENDED RELEASE PHARMACEUTICAL COMPOSITIONS” (priority 2006, published 2007).
Structures can show the parent of a compound that is named as a salt.

Conditions: in water and ethanol

solubility: readily soluble in water and ethanol
Compound: CC(C)NCC(O)COc1cccc2ccccc12 (stereo not shown) [Propranolol hydrochloride, 1-(Isopropylamino)-3-(1-naphthyloxy)-2-propanol]
